Reference: ChEMBL document CHEMBL1133320, “Inhibition of the ras-dependent mitogenic pathway by phosphopeptide prodrugs with antiproliferative properties” (Bioorg Med Chem Lett, 2000)
Numbered stars: 1 amine (or outer) side, 2 acyl side, 3 side chain; on linkers, the order of the positions; unused ones are H or OH. Square brackets hold non-standard residues; d marks the D form. Peptide text beside a SMILES is read from it. ξ: configuration not given here. X2 = CC(C)(C)C(=O)SCCOP(=O)(OCCSC(=O)C(C)(C)C)Oc1ccc(C[C@H](N[*:1])C(=O)[*:2])cc1; X1 = CC(=O)SCCOP(=O)(OCCSC(C)=O)Oc1ccc(C[C@H](N[*:1])C(=O)[*:2])cc1; F2Pmp = N[C@@H](Cc1ccc(C(F)(F)P(=O)(O)O)cc1)C(=O)O; Pmp = N[C@@H](Cc1ccc(CP(=O)(O)O)cc1)C(=O)O; pY = N[C@@H](Cc1ccc(OP(=O)(O)O)cc1)C(=O)O; ξP = O=C(O)C1CCCN1

The molecules below were run against T1, Growth factor receptor-bound protein 2 (Homo sapiens, UniProt P62993) (assay: Dissociation constant of compound was determined from affinity of compound towards Growth factor receptor bound protein 2 measured by fluorescence).
T1 sequence (P62993 whole entry): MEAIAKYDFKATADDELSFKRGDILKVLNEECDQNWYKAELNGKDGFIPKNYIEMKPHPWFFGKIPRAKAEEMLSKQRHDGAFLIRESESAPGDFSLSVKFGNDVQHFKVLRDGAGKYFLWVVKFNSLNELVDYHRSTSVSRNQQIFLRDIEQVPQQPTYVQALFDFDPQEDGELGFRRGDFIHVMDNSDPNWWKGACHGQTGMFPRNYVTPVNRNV

Row | Structure (SMILES) | Kd
1 | CC(C)[C@H](NC(=O)[C@H](CC(N)=O)NC(=O)[C@@H](NC(=O)[C@H](Cc1ccc(C(F)(F)P(=O)(O)O)cc1)NC(=O)[C@H](CO)NC(=O)[C@@H]1CCCN1)C(C)C)C(=O)N[C@@H](CCC(N)=O)C(=O)N[C@@H](CC(N)=O)C(=O)O (H-PS[F2Pmp]VNVQN-OH) | 200 nM
2 | CC(C)[C@H](NC(=O)[C@H](CC(N)=O)NC(=O)[C@@H](NC(=O)[C@H](Cc1ccc(OP(=O)(O)O)cc1)NC(=O)[C@H](CO)NC(=O)[C@@H]1CCCN1)C(C)C)C(=O)N[C@@H](CCC(N)=O)C(=O)N[C@@H](CC(N)=O)C(=O)O (H-PS[pY]VNVQN-OH) | 18 nM
3 | CC(=O)N1CCC[C@H]1C(=O)N[C@@H](Cc1ccccc1)C(=O)N[C@@H](Cc1ccc(OP(=O)(O)O)cc1)C(=O)N[C@H](C(=O)N[C@@H](CC(N)=O)C(=O)N[C@H](C(=O)N1CCC[C@H]1C(N)=O)C(C)C)C(C)C (Ac-PF[pY]VNVP-NH2) | 30 nM
4 | CC(C)[C@H](NC(=O)[C@H](CC(N)=O)NC(=O)[C@@H](NC(=O)[C@H](Cc1ccc(CP(=O)(O)O)cc1)NC(=O)[C@H](CO)NC(=O)[C@@H]1CCCN1)C(C)C)C(=O)N[C@@H](CCC(N)=O)C(=O)N[C@@H](CC(N)=O)C(=O)O (H-PS[Pmp]VNVQN-OH) | 260 nM

These molecules were tested against T1, Growth factor receptor-bound protein 2 (assay: Dissociation constant of compound was determined from affinity of compound towards Growth factor receptor bound protein 2 measured by fluorescence; Non-detectable).

Row | Structure (SMILES) | Kd
5 | CC(=O)N1CCC[C@H]1C(=O)N[C@@H](Cc1ccccc1)C(=O)N[C@@H](Cc1ccc(OP(=O)(OCCSC(=O)C(C)(C)C)OCCSC(=O)C(C)(C)C)cc1)C(=O)N[C@H](C(=O)N[C@@H](CC(N)=O)C(=O)N[C@H](C(=O)N1CCCC1C(N)=O)C(C)C)C(C)C (stereo partly specified) (Ac-PF[X2]VNV[ξP]-NH2) | Not Active
6 | CC(=O)SCCOP(=O)(OCCSC(C)=O)Oc1ccc(C[C@H](NC(=O)[C@H](Cc2ccccc2)NC(=O)[C@@H]2CCCN2C(C)=O)C(=O)N[C@H](C(=O)N[C@@H](CC(N)=O)C(=O)N[C@H](C(=O)N2CCC[C@H]2C(N)=O)C(C)C)C(C)C)cc1 (Ac-PF[X1]VNVP-NH2) | Not Active
